Data taken from ChEMBL document CHEMBL5154843, “Discovery of spirooxadiazoline oxindoles with dual-stage antimalarial activity” (Eur J Med Chem, 2022).
Each block holds one molecule with its values, some of them ahead of it. The source made the active and inactive calls. No cut-off for these calls is given here.

Key:
[1] = system: Plasmodium falciparum; assay: Antiplasmodial activity against erythrocytic stage of chloroquine-resistant Plasmodium falciparum W2 measured after 48 hrs by flow cytometry; assay type: functional, organism-based; details: W2, 48 h
[2] = system: Plasmodium berghei; assay: Antiplasmodial activity against hepatic stage Plasmodium berghei infected in Huh-7 cells assessed as cell viability incubated for 1 hrs and measured by 48 hrs by bioluminescence assay; assay type: functional, organism-based
[3] = system: Plasmodium falciparum; assay: Inhibition of plasmodium falciparum 3D7 ATP4 ATPase activity under high-soidum conditions at 125 nM
[4] = system: Plasmodium falciparum; assay: Antiplasmodial activity against Plasmodium falciparum 3D7 assessed as effect on cytosolic sodium concentration at 50 nM measured after 90 mins by SBFI-dye based fluorescence method; assay type: functional, organism-based
[5] = system: Plasmodium falciparum; assay: Inhibition of plasmodium falciparum 3D7 ATP4 ATPase activity under high-soidum conditions at 50 uM
[6] = system: Plasmodium falciparum; assay: Antiplasmodial activity against Plasmodium falciparum 3D7 measured after 72 hrs by parasite proliferation assay; assay type: functional, organism-based; details: 3D7, 72 h
[7] = system: Plasmodium falciparum; assay: Inhibition of plasmodium falciparum 3D7 ATP4 ATPase activity under low-soidum conditions at 50 uM

SMILES: O=C1Nc2c(Cl)cccc2C12OC(c1cccc(Cl)c1)=NN2c1ccccc1 (stereo unspecified)
IC50 [1]: > 10 µM

SMILES: CC(C)(C)C1=NN(c2cccc(Cl)c2)C2(O1)C(=O)Nc1ccc(Br)cc12 (stereo unspecified)
IC50 [1]: 7.5 µM
IC50 [2]: 9 µM

inhibition [3]: Active
SMILES: C[C@H]1Cc2c([nH]c3cc(Cl)c(F)cc23)[C@@]2(N1)C(=O)Nc1ccc(Cl)cc12
Activity [4]: Active

SMILES: COc1ccc(C2=NN(c3ccccc3)C3(O2)C(=O)Nc2ccc(Cl)cc23)cc1 (stereo unspecified)
IC50 [1]: > 10 µM

SMILES: O=C1Nc2ccc(Br)cc2C12OC(c1ccccc1)=NN2c1cccc(Cl)c1 (stereo unspecified)
IC50 [1]: 6.7 µM
IC50 [2]: 3.9 µM

SMILES: O=C1Nc2ccc(Cl)cc2C12OC(c1cccc(Cl)c1)=NN2c1ccccc1 (stereo unspecified)
IC50 [1]: > 10 µM

SMILES: O=C1Nc2ccc(Cl)cc2C12OC(c1ccccc1)=NN2c1cccc(Cl)c1 (stereo unspecified)
IC50 [1]: 6.4 µM
IC50 [2]: 7 µM

SMILES: CC(C)(C)C1=NN(c2cccc(Cl)c2)C2(O1)C(=O)Nc1cc(Cl)ccc12 (stereo unspecified)
IC50 [1]: 3.8 µM
IC50 [2]: > 10 µM

SMILES: O=C1Nc2cc(Cl)ccc2C12OC(c1ccccc1)=NN2c1cccc(Cl)c1 (stereo unspecified)
IC50 [1]: 8.6 µM
IC50 [2]: 7.2 µM

SMILES: O=C1Nc2c(Cl)cccc2C12OC(c1cccc(Cl)c1)=NN2c1cccc(Cl)c1 (stereo unspecified)
IC50 [1]: > 10 µM

SMILES: O=C1Nc2ccccc2C12OC(c1cccc(Cl)c1)=NN2c1ccccc1 (stereo unspecified)
IC50 [1]: > 10 µM

SMILES: CC(C)(C)C1=NN(c2ccccc2Cl)C2(O1)C(=O)Nc1ccc(Br)cc12 (stereo unspecified)
IC50 [1]: > 10 µM

SMILES: O=C1Nc2ccccc2C12OC(c1ccccc1)=NN2c1cccc(Cl)c1 (stereo unspecified)
IC50 [1]: > 10 µM

SMILES: CC(C)(C)C1=NN(c2cccc(Cl)c2)C2(O1)C(=O)Nc1cc(Br)ccc12 (stereo unspecified)
IC50 [1]: 4.6 µM
IC50 [2]: 9.5 µM

SMILES: CC(C)(C)C1=NN(c2cccc(Cl)c2)C2(O1)C(=O)Nc1ccc(Cl)cc12 (stereo unspecified)
IC50 [1]: 3.5 µM
IC50 [2]: 5.3 µM

SMILES: COc1ccc(C2=NN(c3ccccc3)C3(O2)C(=O)Nc2ccc(Br)cc23)cc1 (stereo unspecified)
IC50 [1]: 8.3 µM
IC50 [2]: > 10 µM

SMILES: O=C1Nc2ccc(Br)cc2C12OC(c1cccc(Cl)c1)=NN2c1ccccc1 (stereo unspecified)
IC50 [1]: > 10 µM

SMILES: O=C1Nc2c(Cl)cccc2C12OC(c1ccccc1)=NN2c1ccc(Cl)cc1 (stereo unspecified)
IC50 [1]: 7.6 µM
IC50 [2]: > 10 µM

SMILES: COc1ccc(C2=NN(c3ccccc3)C3(O2)C(=O)Nc2ccccc23)cc1 (stereo unspecified)
IC50 [1]: > 10 µM

SMILES: O=C1Nc2cc(Br)ccc2C12OC(c1ccccc1)=NN2c1cccc(Cl)c1 (stereo unspecified)
IC50 [1]: > 10 µM

SMILES: O=C1Nc2ccc(Br)cc2C12OC(c1ccc(Cl)cc1)=NN2c1ccccc1 (stereo unspecified)
IC50 [1]: > 10 µM

SMILES: O=C1Nc2c(Cl)cccc2C12OC(c1ccc(Cl)cc1)=NN2c1ccccc1 (stereo unspecified)
IC50 [1]: > 10 µM

SMILES: O=C1Nc2c(Cl)cccc2C12OC(c1ccccc1)=NN2c1cccc(Cl)c1 (stereo unspecified)
IC50 [1]: > 10 µM

SMILES: CC(C)(C)C1=NN(c2ccccc2Cl)C2(O1)C(=O)Nc1ccc(Cl)cc12 (stereo unspecified)
IC50 [1]: > 10 µM

SMILES: O=C1Nc2ccc(Cl)cc2C12OC(c1ccc(Cl)cc1)=NN2c1ccccc1 (stereo unspecified)
IC50 [1]: > 10 µM

SMILES: COc1ccc(C2=NN(c3ccccc3)C3(O2)C(=O)Nc2c(Cl)cccc23)cc1 (stereo unspecified)
IC50 [1]: > 10 µM

SMILES: O=C1Nc2ccc(Br)cc2C12OC(c1ccccc1)=NN2c1ccc(Cl)cc1 (stereo unspecified)
IC50 [1]: 6 µM
inhibition [5]: Active
IC50 [6]: 6.2 µM
inhibition [7]: Active
IC50 [2]: 4.1 µM
